Source: US6339046B1, “Pyrazde herbicides” (Syngenta Investment Corporation, priority 1996, dated 2002)

Experiments:
Avena = test: Pre-emergence herbicidal action (Example B1); assay type: in vivo; conditions: 500 g of a.i./ha, sprayed immediately after sowing, evaluated after 3 weeks, nine-step scale (1=complete damage, 9=no action)
Experimental: (§1) Herbicidal Action Before Emergence of the Plants (Pre-emergence Action)
(§2) Monocotyledoneous and dicotyledoneous test plants are grown in standard soil in plastic pots. Immediately after sowing, the test substances are sprayed on in the form of an aqueous suspension or emulsion, prepared from a 25% emulsion concentrate (Example F1, c)), which corresponds to a dosage of 500 g of a.i./ha (500 l of water/ha). The test plants are subsequently grown in the greenhouse under optimal conditions. After a test period of 3 weeks, the experiment is evaluated on a nine-step scale (1=complete damage, 9=no action). Score figures of 1 to 4 (in particular 1 to 3) denote a good to very good herbicidal action.
(§3) Test plants: Avena, Setaria, Solanum, Stellaria, Ipomoea.

Ipomoea [1] = test: Pre-emergence herbicidal action (Example B1); assay type: in vivo; conditions: 500 g of a.i./ha, sprayed immediately after sowing, evaluated after 3 weeks, nine-step scale (1=complete damage, 9=no action)
Experimental: as §1, §2, §3

Setaria [2] = test: Pre-emergence herbicidal action (Example B1); assay type: in vivo; design: key: 1=complete damage; 9=no action; Score figures of 1 to 4 (in particular 1 to 3) denote a good to very good herbicidal action; conditions: 500 g of a.i./ha, sprayed immediately after sowing, evaluated after 3 weeks, nine-step scale (1=complete damage, 9=no action)
Experimental: as §1, §2, §3

Solanum [3] = test: Pre-emergence herbicidal action (Example B1); assay type: in vivo; design: key: 1=complete damage; 9=no action; Score figures of 1 to 4 (in particular 1 to 3) denote a good to very good herbicidal action; conditions: 500 g of a.i./ha, sprayed immediately after sowing, evaluated after 3 weeks, nine-step scale (1=complete damage, 9=no action)
Experimental: as §1, §2, §3

Stellaria [4] = test: Pre-emergence herbicidal action (Example B1); assay type: in vivo; design: key: 1=complete damage; 9=no action; Score figures of 1 to 4 (in particular 1 to 3) denote a good to very good herbicidal action; conditions: 500 g of a.i./ha, sprayed immediately after sowing, evaluated after 3 weeks, nine-step scale (1=complete damage, 9=no action)
Experimental: as §1, §2, §3

Setaria [5] = test: Post-emergence herbicidal action (Example B2); assay type: in vivo; design: key: nine-step scale: 1 = complete damage, 9 = no action; conditions: 500 g of a.i./ha, sprayed in the 4- to 6-leaf stage, evaluated after approximately 18 days, nine-step scale (1=complete damage, 9=no action)
Experimental: (§4) Post-emergence Herbicidal Action
(§5) In the greenhouse, monocotyledoneous and dicotyledoneous test plants are grown in standard soil in plastic pots and, in the 4- to 6-leaf stage, sprayed with an aqueous suspension or emulsion of the test substances of the formula I, prepared from a 25% emulsion concentrate (Example F1, c)), which corresponds to a dosage of 500 g of a.i./ha (500 l of water/ha). The test plants are subsequently grown on in the greenhouse under optimal conditions. After a test period of approximately 18 days, the experiment is evaluated on a nine-step scale (1=complete damage, 9=no action). Score figures of 1 to 4 (in particular 1 to 3) denote a good to very good herbicidal action.
(§6) Test plants: Setaria, Sinapis, Solanum, Stellaria, Ipomoea.

Ipomoea [6] = test: Post-emergence herbicidal action (Example B2); assay type: in vivo; design: key: 1=complete damage; 9=no action; Score figures of 1 to 4 (in particular 1 to 3) denote a good to very good herbicidal action; conditions: 500 g of a.i./ha, sprayed in the 4- to 6-leaf stage, evaluated after approximately 18 days, nine-step scale (1=complete damage, 9=no action)
Experimental: as §4, §5, §6

Sinapis = test: Post-emergence herbicidal action (Example B2); assay type: in vivo; design: key: 1=complete damage; 9=no action; Score figures of 1 to 4 (in particular 1 to 3) denote a good to very good herbicidal action; conditions: 500 g of a.i./ha, sprayed in the 4- to 6-leaf stage, evaluated after approximately 18 days, nine-step scale (1=complete damage, 9=no action)
Experimental: as §4, §5, §6

Solanum [7] = test: Post-emergence herbicidal action (Example B2); assay type: in vivo; design: key: 1=complete damage; 9=no action; Score figures of 1 to 4 (in particular 1 to 3) denote a good to very good herbicidal action; conditions: 500 g of a.i./ha, sprayed in the 4- to 6-leaf stage, evaluated after approximately 18 days, nine-step scale (1=complete damage, 9=no action)
Experimental: as §4, §5, §6

Stellaria [8] = test: Post-emergence herbicidal action (Example B2); assay type: in vivo; design: key: 1=complete damage; 9=no action; Score figures of 1 to 4 (in particular 1 to 3) denote a good to very good herbicidal action; conditions: 500 g of a.i./ha, sprayed in the 4- to 6-leaf stage, evaluated after approximately 18 days, nine-step scale (1=complete damage, 9=no action)
Experimental: as §4, §5, §6

melting point | Compound | Pre-emergence action, score, test plant Avena (Avena) | Pre-emergence action, score, test plant Ipomoea (Ipomoea [1]) | Pre-emergence action, score, test plant Setaria (Setaria [2]) | Pre-emergence action, score, test plant Solanum (Solanum [3]) | Pre-emergence action, score, test plant Stellaria (Stellaria [4]) | Post-emergence action, score, test plant Setaria (Setaria [5]) | Post-emergence action, score, test plant Ipomoea (Ipomoea [6]) | Post-emergence action, score, test plant Sinapis (Sinapis) | Post-emergence action, score, test plant Solanum (Solanum [7]) | Post-emergence action, score, test plant Stellaria (Stellaria [8])
256 to 257 °C | C#CCOc1cc(-c2nn(C)c(C#N)c2C)c(Cl)cc1Cl [Comp. No. I3.027, 3-(2,4-dichloro-5-propargyloxyphenyl)-4-methyl-5-cyano-1-methyl-[1H]-pyrazole] | 6 | 6 | 1 | 1 | 2 |  |  |  |  | 
263 to 265 °C | Cc1c(-c2cc(O)c(Cl)cc2Cl)nn(C)c1C#N [Comp. No. I36.103, 3-(2,4-dichloro-5-hydroxyphenyl)-4-methyl-5-cyano-1-methyl-[1H]-pyrazole] |  |  |  |  |  |  |  |  |  | 
 | Cc1c(-c2ccc(Cl)cc2F)nn(C)c1C#N [I1, 001] |  |  |  |  |  | 3 | 1 | 4 | 2 | 5
 | COc1cc(-c2nn(C)c(C#N)c2C)c(F)cc1Cl [I1, 006] |  |  |  |  |  | 2 | 1 | 3 | 1 | 3
 | C#CCOc1cc(-c2nn(C)c(C#N)c2C)c(F)cc1Cl [I1, 027] |  |  |  |  |  | 3 | 1 | 3 | 1 | 1
 | Cc1c(-c2cc(CC(Cl)C(=O)OCc3ccccc3)c(Cl)cc2F)nn(C)c1C#N (centres unmarked) [I1, 122] |  |  |  |  |  | 4 | 1 | 1 | 1 | 1
 | Cc1c(-c2cc(C(=O)O)c(Cl)cc2F)nn(C)c1C#N [I1, 130] |  |  |  |  |  | 3 | 1 | 1 | 1 | 1
 | COC(=O)c1cc(-c2nn(C)c(C#N)c2C)c(F)cc1Cl [I1, 134] |  |  |  |  |  | 5 | 1 | 3 | 1 | 1
 | Cc1c(-c2cc(C(=O)OC(C)C)c(Cl)cc2F)nn(C)c1C#N [I1, 140] |  |  |  |  |  | 2 | 1 | 4 | 1 | 1
 | Cc1c(-c2cc(C(=O)OC(C)(C)C(=O)O)c(Cl)cc2F)nn(C)c1C#N [I1, 151] |  |  |  |  |  | 3 | 1 | 1 |  | 1
152 to 153 °C | Cc1c(-c2ccc(Cl)cc2F)nn(C)c1C#N [I1.001] | 4 | 3 | 1 | 1 | 6 |  |  |  |  | 
 | COc1cc(-c2nn(C)c(C#N)c2C)c(F)cc1Cl [I1.006] | 4 | 4 | 1 | 1 | 1 |  |  |  |  | 
145 to 146 °C | C#CCOc1cc(-c2nn(C)c(C#N)c2C)c(F)cc1Cl [I1.027] | 3 | 4 | 2 | 1 | 1 |  |  |  |  | 
 | Cc1c(-c2cc(C(=O)OC(C)C)c(Cl)cc2F)nn(C)c1C#N [I1.140] | 3 | 4 | 1 | 2 | 1 |  |  |  |  | 
 | C#CCOc1cc(-c2nn(C)c(C#N)c2C)c(Cl)cc1Cl [I3, 027] |  |  |  |  |  | 6 | 3 | 3 | 1 | 3
 | Cc1c(-c2ccc(Cl)cc2F)nn(C)c1C(N)=S [I5, 001] |  |  |  |  |  | 6 | 1 | 7 | 1 | 7
 | Cc1c(-c2ccc(Cl)cc2F)nn(C)c1C(N)=S [I5.001] | 6 | 6 | 1 | 1 | 7 |  |  |  |  | 
